Measured values taken from patent US9682114B2, “Plant extracts of Ptaeroxylon obliquum nand compounds having antimicrobial and antihelminthic activity” (UNIVERSITY OF PRETORIA, priority 2013, dated 2017).
≈ marks a conversion by molar mass, not a printed value. Read-outs that look alike come from different tables or passages of the source.

Legend:
[1] = system: Candida albicans standard strain (ATCC 10231) and clinical isolates; assay: Broth micro-dilution assay, minimal inhibitory concentration (MIC); type: cell-based
[2] = system: Candida albicans standard strain (ATCC 10231) and clinical isolates; assay: Minimal fungicidal concentration (MFC) assay; type: cell-based; conditions: for Subcidal concentration: concentration slightly below the MFC; for MFC: mean value
Procedure: Minimal Fungicidal Concentration Determination
The minimal fungicidal concentration (MFC) values were determined as the lowest concentration of the extract that inhibited 100 percent growth of C. albicans standard strain (ATCC 10231) and clinical isolates.
Minimal Fungicidal Concentration Assay
The assay was initiated by pouring fresh sterile water aliquots (100 μl) into the wells of a microtitre plate. […] 50 μl of a 0.2 mg/ml aqueous solution of INT (Sigma) was added to each well. These suspensions were re-incubated at 35° C. for 24 h.

[3] = system: Candida albicans standard strain (ATCC 10231) and clinical isolates; assay: Re-inoculation and re-incubation of MIC wells, cidal/static effects; type: cell-based; conditions: for Growth after re-inoculation and re-incubation: 35° C. for 24 h
[4] = system: adhesion of C. albicans to human buccal epithelial cells; assay: Adhesion assay of C. albicans to human buccal epithelial cells (HBEC); type: cell-based, Candida albicans / human; conditions: 1-h exposure
Procedure: Preparation of Yeast and Buccal Epithelial Cells
For preparation of yeast and buccal epithelial cells the methods of Taweechaisupapong et al., 2005 were used with some modification.
C. albicans standard strain (ATCC 10231) and clinical isolates were maintained on Sabouraud-dextrose agar and grown in the yeast phase in Sabouraud-dextrose broth for this study. The organisms were washed three times in normal saline (NSS) by centrifugation at 5000 rpm for 10 minutes and finally suspended in NSS to 4×10^7 cells/ml (MacFarlane standard 1).
Human buccal epithelial cells (HBEC) were collected from healthy individual subjects by gently scraping the cheek mucosa with a sterile wooden spatula. To minimize individual variations, HBEC from the twenty healthy individuals were pooled in 10 ml of sterile NSS (Sandin et al., 1987). The pooled HBEC suspension was washed three times in NSS by centrifugation at 5000 rpm for 10 minutes to eliminate debris and loosely attached micro-organisms. Washed epithelial cells were confirmed to have no attached yeast before the adherence test. The HBEC was then re-suspended in NSS to a concentration of 9×10^8 cells/ml (by haemocytometer) and used immediately for the adhesion assay. The cells were collected at the same time of day on each occasion to minimize any possible effect of diurnal variations of HBEC on yeast adherence.
Adhesion of C. albicans standard strain (ATCC 10231) and clinical isolates to HBEC was determined as follows: 0.2 ml of P. obliquum acetone leaf extract was serially two-fold diluted with normal saline (NSS) in tubes. Tubes containing 0.2 ml of amphotericin B and NSS served as positive and negative controls, respectively. 0.1 ml of HBEC and 0.1 ml of the yeast suspension prepared as described previously were added to each tube, mixed gently and incubated at 37° C. for 1 hour with gentle agitation. The suspension was then diluted in 1 ml of sterile NSS.
The cells were filtered through a 12 μm pore size polycarbonate filter (Millipore), and washed twice with 15 ml of sterile NSS to remove unattached fungi. Each filter was carefully removed with forceps and placed on a glass slide with the HBEC against the glass surface. After 30 s, the filter was gently removed; leaving the HBEC adhered to the glass slide. The slides were air-dried, fixed with methanol and stained with Gram's dye. The number of yeast cells adhering to 100 HBEC was determined by counting in a light microscopy (Nikon Trans microscope) at ×400 magnification and photographed with a Nixon digital camera DXM 1200 F.
The adhesion assay is a modification of a method previously described by Kimura and Pearsall (1978) and by Taweechaisupapong et al. (2005).
The numbers of fungi adhering per 100 human buccal epithelial cells were counted and the percentage reduction was determined as follows: crude plant extract concentration divided by the control (yeast+HBEC)×100 minus 100=% reduction.

in vitro = conditions: LC50 (cytotoxicity)
Source text: The MTT assay was used to determine the cytotoxicity of dried acetone extracts of H. caffrum (leaves); P. obliquum (leaves); R. melanophloeos (leaves) and S. birrea (stem bark) reconstituted in dimethyl sulphoxide (DMSO) against Mouse fibroblast cells (obtained from the Department of Plant Science, Faculty of Natural and Agricultural Sciences, University of Pretoria, South Africa).
MTT (yellow) is reduced into a formazan (purple) by viable cells. The colour intensity of the formazan produced, which is directly proportional to the number of viable cells, is measured using a spectrophotometer (Mosmann, 1983; Shai, 2007).
Cells were maintained in minimal essential medium (MEM) (Highveld Biological, South Africa) supplemented with 0.1% gentamicin (Virbac) and 5% foetal calf serum (Adcock-lngram). […] Dried crude plant extracts (100 mg) were reconstituted in 1 ml of DMSO and serial 10-fold dilutions of each extract were prepared in growth medium. The growth medium on sub-confluent monolayer cells grown overnight in microtitre plates was removed and cells were exposed to 200 μl of the extracts at different concentrations and incubated again at 37° C. for 5 days. Viability of cells was determined using the tetrazolium-based colorimetric assay (MTT assay) described by Mossmann (1983). Before the addition of MTT, the extract-containing medium on the cells was replaced with fresh culture medium to exclude reduction of the tetrazolium compound by plant extracts. The assay is based on mitochondrial dehydrogenase activity which is assessed by the reductive cleavage of the tetrazolium salt MTT [3-(4.5-dimethylthiazolyl)2.5-diphenyltetrazolium bromide] due to the succinic dehydrogenase present in living cells to yield a purple formazan dye. The cells were incubated with 30 μl of 5 mg/ml MTT in phosphate-buffered saline (PBS) for four hours. Thereafter, medium was removed and cells washed with PBS. DMSO (50 μl) was added to the cells and absorbance was measured using a Versamax microplate reader at 570 nm. Berberine chloride (Sigma) was used as a positive control, wells containing only cells acted as the negative control and a solvent control was also included. The percentage cell viability following the addition of varying concentrations of the extracts in relation to controls was calculated. The LC50 values were calculated (using SoftMax Pro4.8 Software) as the concentration of plant extracts resulting in 50 percent reduction of absorbance compared to untreated cells. Tests were carried out in quadruplicate and each experiment was repeated three times.

Candida albicans = conditions: C. albicans; cited from earlier work
[5] = system: S. aureus, Salmonella typhi, Vibrio cholera, Escherichia coli, Shigella spp.; conditions: cited from earlier work
Enterococcus feacalis = conditions: cited from earlier work
[6] = system: monkey kidney (Vero) cells; conditions: cited from earlier work
Sporothrix schenckii = conditions: cited from earlier work
Microsporum canis = conditions: cited from earlier work
[7] = C. albicans 1051604, Amphotericin B 0.6 mg/ml
[8] = C. albicans ATCC 10231, Amphotericin B 0.11 mg/ml
[9] = C. albicans M0824, Amphotericin B 0.6 mg/ml
[10] = Candida albicans, C. albicans ATCC 10231, mean value, read-out: MIC

`C[C@@H]1[C@H](O)[C@@H](C)/C=C/C=C/C=C/C=C/C=C/C=C/C=C/[C@H](O[C@@H]2O[C@H](C)[C@@H](O)[C@H](N)[C@@H]2O)C[C@@H]2O[C@](O)(C[C@@H](O)C[C@@H](O)[C@H](O)CC[C@@H](O)C[C@@H](O)CC(=O)O[C@H]1C)C[C@H](O)[C@H]2C(=O)O` [Amphotericin B, reference compound] gave an MIC ([1]; 12 h incubation, C. albicans 1051255) of 30 µg/mL (≈ 32.5 µM), an MIC ([1]; 12 h incubation, C. albicans 1051604) of 60 µg/mL (≈ 64.9 µM) and an MIC ([1]; 12 h incubation, C. albicans 1051608) of 110 µg/mL (≈ 119 µM). The MIC ([1]; 12 h incubation, C. albicans ATCC 10231) was 110 µg/mL (≈ 119 µM), the MIC ([1]; 12 h incubation, C. albicans M0824) was 30 µg/mL (≈ 32.5 µM) and the MIC ([1]; 12 h incubation, C. albicans M0825) was 30 µg/mL (≈ 32.5 µM). For the same compound, the MIC ([1]; 12 h incubation, C. albicans M0826) was 60 µg/mL (≈ 64.9 µM), the MIC ([1]; 24 h incubation, C. albicans 1051255) was 230 µg/mL (≈ 249 µM) and the MIC ([1]; 24 h incubation, C. albicans 1051604) was 60 µg/mL (≈ 64.9 µM). It also gave an MIC ([1]; 24 h incubation, C. albicans 1051608) of 110 µg/mL (≈ 119 µM), an MIC ([1]; 24 h incubation, C. albicans ATCC 10231) of 110 µg/mL (≈ 119 µM) and an MIC ([1]; 24 h incubation, C. albicans M0824) of 110 µg/mL (≈ 119 µM). For the same compound, the MIC ([1]; 24 h incubation, C. albicans M0825) was 60 µg/mL (≈ 64.9 µM), the MIC ([1]; 24 h incubation, C. albicans M0826) was 110 µg/mL (≈ 119 µM) and the MIC ([1]; C. albicans ATCC 10231, mean value) was 110 µg/mL (≈ 119 µM). For the same compound, the MIC ([1]; C. albicans clinical isolate 1051255, mean value) was 30 µg/mL (≈ 32.5 µM), the MIC ([1]; C. albicans clinical isolate 1051604, mean value) was 60 µg/mL (≈ 64.9 µM) and the MIC ([1]; C. albicans clinical isolate 1051608, mean value) was 110 µg/mL (≈ 119 µM). For the same compound, the MIC ([1]; C. albicans clinical isolate M0824, mean value) was 30 µg/mL (≈ 32.5 µM), the MIC ([1]; C. albicans clinical isolate M0825, mean value) was 30 µg/mL (≈ 32.5 µM) and the MIC ([1]; C. albicans clinical isolate M0826, mean value) was 60 µg/mL (≈ 64.9 µM). The Subcidal concentration ([2]; C. albicans 1051604) was 0.06, the Subcidal concentration ([2]; C. albicans ATCC 10231) was 0.11 and the MFC ([2]; C. albicans ATCC 10231) was 110 µg/mL (≈ 119 µM). The Subcidal concentration ([2]; C. albicans M0824) was 0.06, the MFC ([2]; C. albicans clinical isolate 1051255) was 230 µg/mL (≈ 249 µM) and the MFC ([2]; C. albicans clinical isolate 1051604) was 60 µg/mL (≈ 64.9 µM). For the same compound, the MFC ([2]; C. albicans clinical isolate 1051608) was 110 µg/mL (≈ 119 µM), the MFC ([2]; C. albicans clinical isolate M0824) was 110 µg/mL (≈ 119 µM) and the MFC ([2]; C. albicans clinical isolate M0825) was 60 µg/mL (≈ 64.9 µM). The MFC ([2]; C. albicans clinical isolate M0826) was 110 µg/mL (≈ 119 µM), the Cidal/static effects ([3]; C. albicans 1051255) was “static” and the “Growth after re-inoculation and re-incubation” value ([3]; C. albicans 1051255) was “yes”. For the same compound, the Cidal/static effects ([3]; C. albicans M0824) was “static”, the “Growth after re-inoculation and re-incubation” value ([3]; C. albicans M0824) was “yes” and the “Number of yeast per 100 HBEC” value [4, 7] was 10. The “Reduction in adherence %” value [4, 7] was 95.05%, the “Number of yeast cells per 100 HBEC” value [4, 8] was 109 and the “Reduction in adherence %” value [4, 8] was 38.42%. The “Number of yeast per 100 HBEC” value [4, 9] was 12 and the “Reduction in adherence %” value [4, 9] was 93.41%.
In the case of `COc1ccc2cc3[n+](cc2c1OC)CCc1cc2c(cc1-3)OCO2` [Berberine, Berberine chloride, reference compound], the CC50 at 5 days (in vitro; mouse) was 9.04 µg/mL.
In the case of `C=C(C)[C@@H]1CC[C@]2(C)CC[C@]3(C)[C@H](CC[C@@H]4[C@@]5(C)CC[C@H](O)C(C)(C)[C@@H]5CC[C@]43C)[C@@H]12` [Compound 1.1, Lupeol], the MIC [1, 10] is listed as 4 µg/mL (≈ 9.37 µM), the “MIC (Shai et al., 2008)” value (Candida albicans) is listed as 250 µg/mL (≈ 586 µM) and the “MIC (Mathabe et al., 2008)” value [5] is listed as greater than 200 µg/mL. The “MIC (Shai et al., 2008)” value (Enterococcus feacalis) was 63 µg/mL (≈ 148 µM), the “cytotoxic LC50 (Shai et al., 2008)” value [6] was 89.5 µg/mL and the “MIC (Shai et al., 2008)” value (Sporothrix schenckii) was 12 µg/mL (≈ 28.1 µM). For the same compound, the CC50 at 5 days (in vitro; mouse fibroblast cells, MTT, 5 days) was 0.00148 µg/mL (≈ 0.00347 µM) and the “MIC (Shai et al., 2008)” value (Microsporum canis) was 16 µg/mL (≈ 37.5 µM).
For `CC1(C)CC[C@]2(C)CC[C@]3(C)C(CCC4C5(C)CCC(O)C(C)(C)C5CC[C@]43C)C2C1` (stereo partly drawn) [Compound 1.2, β-amyrin], the MIC [1, 10] was 4 µg/mL (≈ 9.33 µM).
